The subject of data set [1] is normal adult mice. The data set can be described thus: Open field, time in the centre of the arena (anxiety). Particulars: 25 nmol/day, first five minutes of familiarization session. Format: in vivo. As for the experimental part: (§1) For the compound treatment, mice (8 animals/group) received subcutaneous implants of extended release depot pellets containing P21 or P22 at 25 nmol/day for 35 days of continuous dosing (Innovative Research of America, USA). For the control group (8 animals), pellets consisted of the carrier polymer only. Mice were anesthetized with 2.5% Avertin (0.38 ml for a 25 g animal). Under sterile conditions, pellets were implanted subcutaneously along the anterolateral aspect of the right shoulder with a precision trochar (Innovative Research of America). After recovery of anesthesia, animals were transferred to the animal colony. No complications associated with the implantation and treatment were observed. All procedures on animals were conducted in accordance with approved protocols from our Institutional Animal Welfare Committee.
The test used was an adaptation of the procedure previously described by Sargolini and collaborators (Sargolini, F., et al. Behav Brain Res 138 (2003):153-63). The testing apparatus was a classic open field (i.e. a PVC square arena, 50×50 cm, with walls 40 cm high). The open field was placed in a part of the room separated from the experimentator with a black opaque curtain. […] Object discrimination was calculated as follows: OD=(time spent close to new object)/(time spent close to new object)+(time spent close to old object)×100

Data set [2] has as its system normal adult mice. Description: Spatial reference memory task in the water maze. Format: in vivo. As for the experimental part:
as §1
Spatial reference learning and memory were evaluated in the water maze using a procedure adapted from that previously described by Morris et al. (Morris, R. G., et al. Nature 297 (1982): 681-3). The test required that mice used a spatial navigational strategy based on a spatial representation of the environment to find a fixed submerged escape platform. The procedure was performed in a 180 cm diameter circular tank. The pool was filled with water (21±1° C.) made opaque by adding white non-toxic paint. Acquisition started with the escape platform (15 cm diameter submerged 1 cm below water surface) in the Northwest quadrant and each animal was given 90 s to find the platform. […] At the end of each trial, the mouse was left on the platform for 20 seconds, then dried and returned to its home cage until the next trial. Five such acquisition trials were given on each day for four consecutive days. A test for retention, or probe trial (PT), was given 24 hours later. During the probe trial the mouse was allowed to swim in the tank without the escape platform for 60 seconds. This was followed by second and third probe trials 15 and 30 days after the first probe trial.
The measures of learning were the time and distance covered to reach the escape platform. For the probe trial, the tank was divided into four imaginary quadrants and a small zone where the escape platform had been. The measure of retention was calculated as the ratio of time spent or distance covered in target quadrant over that in the three other quadrants.
Mouse behavior in the water maze was monitored by a Samsung Digital Camera (SDC 4304) mounted to the ceiling and tracked and timed by a SMART (Pan Lab/San Diego Instruments) version 2.0.14 software.

A short description of data set [3]: General examination (physical state, body weight, exploratory activity, swim speed, floating). Format: in vivo, mice. Particulars: 25 nmol/day for 35 days.
Assay in data set [4]: as above
Format: in vivo, mice. Particulars: 25 nmol/day for 35 days. As for the experimental part: All in vivo studies for characterization of compounds (stereology and behavioral analysis) were performed on 8-10-month-old female retired breeders of C57Bl6 background. Animals were acclimatized for at least 3 weeks to exclude occasional pregnant mice from the studies. Mice were group-housed (3 animals per cage) with a 12:12 hours light/dark cycle and with free access to food and water.
as §1
The physical state and condition of animals were carefully monitored throughout the treatment by evaluating grooming, physical state and clasping reflex. Body weight was also recorded.
The test used was an adaptation of the procedure previously described by Sargolini and collaborators (Sargolini, F., et al. Behav Brain Res 138 (2003):153-63). The testing apparatus was a classic open field (i.e. a PVC square arena, 50×50 cm, with walls 40 cm high). The open field was placed in a part of the room separated from the experimentator with a black opaque curtain. The open field was surmounted by a video camera connected to a computer. Three objects were employed in this task. The general procedure consisted of three different phases: a familiarization phase (1 session of 20 min), a sample phase, and a test phase. On the first days, mice were individually submitted to the familiarization session during which they were introduced in the empty arena in order to become familiar with the apparatus. This familiarization session allowed to record a baseline level of locomotor activity (measuring the distance covered in the open field) and of anxiety (measuring the time the animals spent in the centre of the arena during the first five minutes). On the second day each mouse was first submitted to the sample phase (session 1, ten minutes) for which two identical objects were placed in a symmetric position from the centre of the arena. After a 15 minute delay during which the mouse returned to its home cage, it was reintroduced in the arena to perform the test phase (session 2, 10 min). The mouse was then exposed to two objects: a familiar object (previously presented during the sample phase) and a new object, placed at the same location as during the sample phase. Data collection was performed using a video tracking system (Smart version 2.0.14 software, Pan Lab/San Diego Instruments). Object discrimination was calculated as follows: OD=(time spent close to new object)/(time spent close to new object)+(time spent close to old object)×100
This is another data set of the same source.

The subject of data set [5] is normal adult mice. The data set can be described thus: One-trial object recognition test. Format: in vivo. Particulars: 25 nmol/day. As for the experimental part:
as §1
In the one-trial object recognition task, animals are exposed to two different objects which they have to identify as novel or familiar based on the memory of an earlier experience with one of the two objects they encountered in the same open field. The familiar object is explored shorter than the novel encountered one because the representation of the former is still available in memory. The one-trial object recognition task tests some aspects of episodic memory but is limited to memory of an object (what), the location of an object (where), and the context in which it was encountered (which). However, the temporal dimension of the episode remains inaccessible to the experimentator, and because of this reason this task in animals is considered a test of short term memory.
The test used was an adaptation of the procedure previously described by Sargolini and collaborators (Sargolini, F., et al. Behav Brain Res 138 (2003):153-63). The testing apparatus was a classic open field (i.e. a PVC square arena, 50×50 cm, with walls 40 cm high). […] Object discrimination was calculated as follows: OD=(time spent close to new object)/(time spent close to new object)+(time spent close to old object)×100

The subject of data set [6] is LIF-induced STAT3 phosphorylation at Tyr705 in HepG2 cells. The data set can be described thus: LIF-induced STAT3 phosphorylation in HepG2 cells (Western blot). Conditions: 15 min. Format: cell-based, human. As for the experimental part:
HepG2 cells were treated with different concentrations of P21 together with 0.25 nM LIF for 15 min, and then the STAT3 phosphorylation at Tyr705 (pY-STAT3) was determined by Western blots. The pY-STAT3 value was normalized to total STAT3 expression. Data are presented as percentages of the value from cells treated with 0.25 nM LIF alone (100%). *p<0.05; **p<0.01.
To investigate the molecular mechanism of action of compound P21 in LIF signaling, HepG2 human hepatoma cell (ATCC, USA) at 80% confluence were treated with different concentrations of P21 and with 0.25 nM LIF (Peprotec, Inc., USA) for 15 min. The cells were lysed and subjected to Western blots developed with antibodies anti-phospho-Tyr 705 STAT3 and anti-STAT3 (Cell signaling Technology, USA).
To investigate whether P21 affects LIF signaling pathway, HepG2 cells were treated with different concentrations of P21 from 0.01 to 1000 nM along with 0.25 nM LIF for 15 min, and then measured STAT3 phosphorylation by Western blots. […] In HepG2 cells, 10 nM of P21 inhibited ˜30% of LIF-induced phosphorylation of STAT3 (p<0.005, student t-test; FIG. 15).

SMILES strings stand for the structures. Entries after “also recorded” stand apart in the source; their conditions may differ. Peptide text beside a SMILES is read from it. * marks the point of attachment. X1 = NC(=O)C12CC3CC(CC(N*)(C3)C1)C2

Take `CC(=O)N[C@@H](CC(=O)O)C(=O)NCC(=O)NCC(=O)N[C@@H](CC(C)C)C(=O)NC12CC3CC(C1)CC(C(N)=O)(C3)C2` [Peptide P21, Ac-DGGL^AG-NH2] (Ac-DGGL-X1): the “level of anxiety (time in the center of the open field)” value in data set [1] was “spent more time in the center of the open field than control animals; also recorded: reduced anxiety level”. For the same compound, the “time in the target quadrant, probe trials PT2 and PT3” value in data set [2] (15 and 30 days after the end of the treatment) was “beneficial effect disappeared; also recorded: showed no effect”. Moreover, in data set [2] (24 hours after last day of training), the “time in the target quadrant, first probe trial” value was “focus significantly more on the target quadrant; also recorded: improved performance in the first probe trial”. Moreover, the “escape latencies to reach the submerged platform (learning)” value in data set [2] (training day 2 to 4, compared to control group) is “significantly reduced; also recorded: increased performance in the learning of spatial memory task”. The “floating behavior in the water maze task (sign of depression or locomotor impairment)” value in data set [3] was “no floating behavior was observed”. In addition, in data set [3] (water maze), the swim speed result is recorded as “no alteration; also recorded: did not induce any effect”. In data set [4] (open field), the “exploratory behavior / exploratory activity” value was “no alteration; also recorded: did not induce any effect”. In addition, in data set [4] (subcutaneous pellets), the body weight entry was “no alteration; also recorded: did not induce any effect” and the general physical state entry is listed as “no alteration”. Besides, in data set [5] (compared to other groups), the “percentage of discrimination (object discrimination)” value is “significantly increased; also recorded: significantly improved the ability to discriminate a new object”. The “time exploring the new object versus the familiar object” value in data set [5] (test phase after 15 minute delay) is recorded as “clearly spent more time exploring the new object”. Moreover, the “inhibition of LIF-induced phosphorylation of STAT3” value in data set [6] (10 nM P21, 0.25 nM LIF) is given as around 30%. Moreover, the “LIF-induced STAT3 phosphorylation, concentration dependence” value in data set [6] (0.01 to 1000 nM P21, 0.25 nM LIF) is “dose-dependent manner; also recorded: inhibited slightly in a dose-dependent manner”.
